# Experimental data: patent publication US20260250290A1 (BRISTOL-MYERS SQUIBB COMPANY, priority 2023, published 2026)
# Where a name gives a salt, the structure may show the parent alone.
# Target: T1, full length SGK1 (Homo sapiens, UniProt O00141)
# T1 construct: 125 μM full length SGK1 (Life Technologies Part #PR7358A); purchased Life Technologies PR7358A
# T1 sequence (O00141 1-431): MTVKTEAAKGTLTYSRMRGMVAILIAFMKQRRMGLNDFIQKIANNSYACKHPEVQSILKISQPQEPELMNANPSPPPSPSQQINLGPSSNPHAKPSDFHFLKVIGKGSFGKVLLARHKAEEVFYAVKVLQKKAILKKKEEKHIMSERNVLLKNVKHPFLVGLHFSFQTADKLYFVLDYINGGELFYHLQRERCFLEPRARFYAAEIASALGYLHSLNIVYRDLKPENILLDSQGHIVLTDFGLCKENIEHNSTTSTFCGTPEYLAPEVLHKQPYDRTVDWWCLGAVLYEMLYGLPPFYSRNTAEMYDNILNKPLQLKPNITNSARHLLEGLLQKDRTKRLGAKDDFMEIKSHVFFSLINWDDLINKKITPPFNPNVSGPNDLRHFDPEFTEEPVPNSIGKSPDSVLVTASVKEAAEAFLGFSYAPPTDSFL
# Assay: SGK1 inhibition Assay A (Caliper LabChip electrophoretic separation of fluorescent peptide substrate and phosphorylated product)
# Assay type: biochemical
# Settings: Assay A; 20 μM ATP, 40 min incubation; read-out: SGK1 IC50
row,Compound,IC50 [nM]
1,"Cc1cc(-c2cc(N3CCC[C@@H](NC(=O)c4ccc(C)s4)C3)c3c(N)ncnn23)ccn1 [Example 133, N-[(3R)-1-[4-amino-7-(2-methylpyridin-4-yl)pyrrolo[2,1-f][1,2,4]triazin-5-yl]piperidin-3-yl]-5-methylthiophene-2-carboxamide]",4
2,"CS(=O)(=O)N1CC=C(c2cc(N3CCC[C@@H](NC(=O)c4ccc(Cl)s4)C3)c3c(N)ncnn23)C1 [Example 134, (R)—N-(1-(4-amino-7-(1-(methylsulfonyl)-2,5-dihydro-1H-pyrrol-3-yl)pyrrolo[2,1-f][1,2,4]triazin-5-yl)piperidin-3-yl)-5-chlorothiophene-2-carboxamide]",2
3,"CS(=O)(=O)N1CC=C(c2cc(N3CCC[C@@H](NC(=O)c4cccs4)C3)c3c(N)ncnn23)C1 [Example 135, (R)—N-(1-(4-amino-7-(1-(methylsulfonyl)-2,5-dihydro-1H-pyrrol-3-yl)pyrrolo[2,1-f][1,2,4]triazin-5-yl)piperidin-3-yl)thiophene-2-carboxamide, TFA]",3
4,"Cc1ccc(C(=O)N[C@@H]2CCN(c3cc(-c4ccc(S(C)(=O)=O)cc4)n4ncnc(N)c34)C2)s1 [Example 136, (R)—N-(1-(4-amino-7-(4-(methylsulfonyl)phenyl)pyrrolo[2,1-f][1,2,4]triazin-5-yl)pyrrolidin-3-yl)-5-methylthiophene-2-carboxamide, TFA]",230
5,"CS(=O)(=O)c1ccc(-c2cc(N3CC[C@@H](NC(=O)c4ccc(Cl)s4)C3)c3c(N)ncnn23)cc1 [Example 137, (R)—N-(1-(4-amino-7-(4-(methylsulfonyl)phenyl)pyrrolo[2,1-f][1,2,4]triazin-5-yl)pyrrolidin-3-yl)-5-chlorothiophene-2-carboxamide, TFA]",143
6,"COC(=O)N1CC=C(c2cc(N3CCC[C@@H](NC(=O)c4ccc(Cl)s4)C3)c3c(N)ncnn23)C1 [Example 138, methyl (R)-3-(4-amino-5-(3-(5-chlorothiophene-2-carboxamido)piperidin-1-yl)pyrrolo[2,1-f][1,2,4]triazin-7-yl)-2,5-dihydro-1H-pyrrole-1-carboxylate, TFA]",7
7,"NC(=O)c1ccc(-c2cc(N3CCC[C@@H](NC(=O)c4ccc(Cl)s4)C3)c3c(N)ncnn23)cc1F [Example 139, (R)—N-(1-(4-amino-7-(4-carbamoyl-3-fluorophenyl)pyrrolo[2,1-f][1,2,4]triazin-5-yl)piperidin-3-yl)-5-chlorothiophene-2-carboxamide, TFA]",3
8,"COCCOc1cc(Cl)sc1C(=O)N[C@@H]1CCCN(c2cc(C3=CCN(S(C)(=O)=O)C3)n3ncnc(N)c23)C1 [Example 140, (R)—N-(1-(4-amino-7-(1-(methylsulfonyl)-2,5-dihydro-1H-pyrrol-3-yl)pyrrolo[2,1-f][1,2,4]triazin-5-yl)piperidin-3-yl)-5-chloro-3-(2-methoxyethoxy)thiophene-2-carboxamide]",6
9,"CN(C)CCOc1cc(Cl)sc1C(=O)N[C@@H]1CCCN(c2cc(C3=CCN(S(C)(=O)=O)C3)n3ncnc(N)c23)C1 [Example 141, (R)—N-(1-(4-amino-7-(1-(methylsulfonyl)-2,5-dihydro-1H-pyrrol-3-yl)pyrrolo[2,1-f][1,2,4]triazin-5-yl)piperidin-3-yl)-5-chloro-3-(2-(dimethylamino)ethoxy)thiophene-2-carboxamide, TFA]",3
10,"CS(=O)(=O)N1CC=C(c2cc(N3CCC[C@@H](NC(=O)c4sc(Cl)cc4OCCN4CCOCC4)C3)c3c(N)ncnn23)C1 [Example 142, (R)—N-(1-(4-amino-7-(1-(methylsulfonyl)-2,5-dihydro-1H-pyrrol-3-yl)pyrrolo[2,1-f][1,2,4]triazin-5-yl)piperidin-3-yl)-5-chloro-3-(2-morpholinoethoxy)thiophene-2-carboxamide, TFA]",9
11,"CC1(NC(=O)c2ccc(Cl)s2)CCCN(c2cc(-c3ccc(S(C)(=O)=O)cc3)n3ncnc(N)c23)C1 (centres unmarked) [Example 145, N-(1-(4-amino-7-(4-(methylsulfonyl)phenyl)pyrrolo[2,1-f][1,2,4]triazin-5-yl)-3-methylpiperidin-3-yl)-5-chlorothiophene-2-carboxamide, TFA]",765
12,"C[C@@]1(NC(=O)c2ccc(Cl)s2)CCCN(c2cc(-c3ccc(S(C)(=O)=O)cc3)n3ncnc(N)c23)C1 [Example 146, (R)—N-(1-(4-amino-7-(4-(methylsulfonyl)phenyl)pyrrolo[2,1-f][1,2,4]triazin-5-yl)-3-methylpiperidin-3-yl)-5-chlorothiophene-2-carboxamide, TFA]",835
13,"COCCOc1cc(Cl)sc1C(=O)N[C@@H]1CCCN(c2cc(-c3ccnc(F)c3)n3ncnc(N)c23)C1 [Example 147, (R)-N-(1-(4-amino-7-(2-fluoropyridin-4-yl)pyrrolo[2,1-f][1,2,4]triazin-5-yl)piperidin-3-yl)-5-chloro-3-(2-methoxyethoxy)thiophene-2-carboxamide]",4
14,"Nc1ncnn2c(-c3ccnc(F)c3)cc(N3CCC[C@@H](NC(=O)c4sc(Cl)cc4OCCN4CCOCC4)C3)c12 [Example 148, (R)-N-(1-(4-amino-7-(2-fluoropyridin-4-yl)pyrrolo[2,1-f][1,2,4]triazin-5-yl)piperidin-3-yl)-5-chloro-3-(2-morpholinoethoxy) thiophene-2-carboxamide, TFA]",5
15,"CN(C)CCOc1cc(Cl)sc1C(=O)N[C@@H]1CCCN(c2cc(-c3ccnc(F)c3)n3ncnc(N)c23)C1 [Example 149, (R)-N-(1-(4-amino-7-(2-fluoropyridin-4-yl)pyrrolo[2,1-f][1,2,4]triazin-5-yl)piperidin-3-yl)-5-chloro-3-(2-(dimethylamino)ethoxy) thiophene-2-carboxamide, TFA]",1
16,"Nc1ncnn2c(-c3ccnc(F)c3)cc(N3CCC[C@@H](NC(=O)c4cc(Cl)c(Cl)s4)C3)c12 [Example 150, (R)-N-(1-(4-amino-7-(2-fluoropyridin-4-yl)pyrrolo[2,1-f][1,2,4]triazin-5-yl)piperidin-3-yl)-4,5-dichlorothiophene-2-carboxamide]",5
17,"Nc1ncnn2c(-c3ccnc(F)c3)cc(N3CCC[C@@H](NC(=O)Cc4ccc(Cl)s4)C3)c12 [Example 151, (R)-N-(1-(4-amino-7-(2-fluoropyridin-4-yl)pyrrolo[2,1-f][1,2,4]triazin-5-yl)piperidin-3-yl)-2-(5-chlorothiophen-2-yl)acetamide]",285
18,"Nc1ncnn2c(-c3ccnc(F)c3)cc(N3CCC[C@@H](NC(=O)c4ccc(C(F)F)s4)C3)c12 [Example 152, (R)-N-(1-(4-amino-7-(2-fluoropyridin-4-yl)pyrrolo[2,1-f][1,2,4]triazin-5-yl)piperidin-3-yl)-5-(difluoromethyl)thiophene-2-carboxamide, TFA]",5
19,"Nc1ncnn2c(-c3ccnc(F)c3)cc(N3CCC[C@@H](NC(=O)c4cccs4)C3)c12 [Example 153, (R)-N-(1-(4-amino-7-(2-fluoropyridin-4-yl)pyrrolo[2,1-f][1,2,4]triazin-5-yl)piperidin-3-yl)thiophene-2-carboxamide]",1
20,"Nc1ncnn2c(-c3ccnc(F)c3)cc(N3CCC[C@@H](NC(=O)c4ccc(C(F)(F)F)s4)C3)c12 [Example 154, (R)-N-(1-(4-amino-7-(2-fluoropyridin-4-yl)pyrrolo[2,1-f][1,2,4]triazin-5-yl)piperidin-3-yl)-5-(trifluoromethyl)thiophene-2-carboxamide, TFA]",7
21,"Nc1ncnn2c(-c3ccnc(F)c3)cc(N3CCC[C@@H](NC(=O)c4ccsc4)C3)c12 [Example 155, (R)-N-(1-(4-amino-7-(2-fluoropyridin-4-yl)pyrrolo[2,1-f][1,2,4]triazin-5-yl)piperidin-3-yl)thiophone-3-carboxamide]",2
22,"COc1cscc1C(=O)N[C@@H]1CCCN(c2cc(-c3ccnc(F)c3)n3ncnc(N)c23)C1 [Example 156, (R)-N-(1-(4-amino-7-(2-fluoropyridin-4-yl)pyrrolo[2,1-f][1,2,4]triazin-5-yl)piperidin-3-yl)-4-methoxythiophene-3-carboxamide]",3
23,"Nc1ncnn2c(-c3ccnc(F)c3)cc(N3CCC[C@@H](NC(=O)c4cc(Cl)sc4Cl)C3)c12 [Example 157, (R)-N-(1-(4-amino-7-(2-fluoropyridin-4-yl)pyrrolo[2,1-f][1,2,4]triazin-5-yl)piperidin-3-yl)-2,5-dichlorothiophene-3-carboxamide]",15
24,"COc1c(C(=O)N[C@@H]2CCCN(c3cc(-c4ccnc(F)c4)n4ncnc(N)c34)C2)csc1Cl [Example 158, (R)-N-(1-(4-amino-7-(2-fluoropyridin-4-yl)pyrrolo[2,1-f][1,2,4]triazin-5-yl)piperidin-3-yl)-5-chloro-4-methoxythiophene-3-carboxamide]",6
25,"Nc1ncnn2c(-c3ccnc(F)c3)cc(N3CCC[C@@H](NC(=O)c4csc5ccccc45)C3)c12 [Example 159, (R)-N-(1-(4-amino-7-(2-fluoropyridin-4-yl)pyrrolo[2,1-f][1,2,4]triazin-5-yl)piperidin-3-yl)benzo[b]thiophene-3-carboxamide, TFA]",17
26,"Nc1ncnn2c(-c3ccnc(F)c3)cc(N3CCC[C@@H](NC(=O)c4csc5c4CCCC5)C3)c12 [Example 160, (R)-N-(1-(4-amino-7-(2-fluoropyridin-4-yl)pyrrolo[2,1-f][1,2,4]triazin-5-yl)piperidin-3-yl)-4,5,6,7-tetrahydrobenzo[b] thiophene-3-carboxamide, TFA]",20
